Values joined by “and” are separate entries in the source; they are usually repeats but may differ in a detail not shown here. Identical values can stand only once. Blank lines part the entries; values can stand above or below the compound they belong to.
Test system: HSSY-II complex spheroid growth, percent test/control
Assay: Anticancer human tumor HSSY-II cell line growth inhibition [Asc];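 also: spheroids exposed to drug for 7 days before reading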
Settings: for viability, T/C: stronger effect = lower value
Protocol: Multicellular complex tumor spheroid response to apoptosis pathway targeting inhibitors Alrizomadlin, Pelcitoclax, and Dasminapant in combination with a variety of drugs and investigational agents in selected tumor cell lines
The MDM2 inhibitor alrizomadlin, the Bcl-2/Bcl-xL inhibitor pelcitoclax, and the IAPs inhibitor dasminapant were evaluated both individually and in combination with standard of care and investigational anticancer small molecules within a complex spheroid model of solid tumors. . Complex spheroids include a stromal component modeled by human endothelial cells (HUVEC) and fibroblasts modeled by human mesenchymal stem cells (MSCs). The concentration ranges selected for each drug and investigational agent were based upon clinically achievable concentrations if the clinical Cmax of the agent was known.
Compounds. The drugs and investigational agents: alrizomadlin (APG-115; NSC831270), pelcitoclax (APG-1252; NSC835773), dasminapant (APG-1387;NSC834197), TAK-243 (NSC785004), copanlisib (NSC809693), olaparib (NSC753686), talazoparib (NSC767125), cobimetinib (NSC 768068), eltanexor (KPT-8602, NSC 794443), abemaciclib (NSC 768073), sotorasib (NSC818433), adagrasib (NSC 831453), MRTX-1133 (NSC 836407), Iadademestat (ORY1001, NSC 806812), and RMC-4630 (NSC839698), were obtained from the NCI Developmental Therapeutics Program Chemical Repository. The FDA-approved anticancer drug set is available from the Developmental Therapeutics Program at https://dtp.cancer.gov/organization/dscb/obtaining/available plates.htm. […] The stock solutions were prepared in dimethyl sulfoxide (DMSO, Sigma-Aldrich, St. Louis, MO, cat. D2650) at 800-fold the tested concentration and stored at -70 degrees C prior to their use. All drugs and investigational agents were tested over a range starting from a high concentration at or near the clinical Cmax and decreasing in half-log increments. If the clinical Cmax for an agent had not been determined, the highest concentration tested was 10 microM.
The patient-derived cancer (PDC) cell lines include five colon adenocarcinomas: 186277-243-T-J2-PDC, 616215-338-R-J1-PDC, 439559-082-T-J2-PDC, 463943-066-T-J2-PDC, and 519858-162-T-J1-PDC; three pancreatic carcinomas: 323965-272-R-J2-PDC, 521955-158-R6-J3-PDC, and 521955-158-R2-J5-PDC; two uterine sarcomas: 327498-152-R-J2-PDC and 993429-296-R-J1-PDC; two rhabdomyosarcomas: 755483-174-R-J1-PDC and 772245-204-R-J1-PDC; two soft tissue sarcomas: 126254-015-R-J1-PDC and 494315-158-R-J1-PDC; two malignant fibrous histiocytomas: 317291-083-R-J1-PDC and 596521-263-R-J1-PDC; two breast carcinomas: 171881-019-R-J1-PDC and 885512-296-R-J2-PDC; and one ovarian carcinoma: 6556581-035-R-J-PDC were obtained from the NCI PDMR, (https://pdmr.cancer.gov). The established cell lines HSSY-2 synovial sarcoma (RRID:CVCL 8719), SYO-1 synovial sarcoma (RRID:CVCL_7146), MPNST malignant peripheral neural sheath tumor were obtained from the Sloan Kettering Institute. The following established cell lines were purchased from the American Type Culture Collection (ATCC, Manassas, VA), Sor the received from the NCI repository:, PANC-1 pancreatic carcinoma (CRL-1469, RRID:CVCL_0480), OVCAR-5 ovarian carcinoma (RRID:CVCL_1628), OVCAR-8 ovarian carcinoma (RRID:CVCL_1629), , MCF-7 breast carcinoma (CRL-12584, RRID:CVCL_0031), MDA-MB-231 breast carcinoma (CRL-12532, RRID:CVCL_0062), NCI-H1876 small cell lung carcinoma (CRL-5902, RRID:CVCL_1503), NCI-H510A small cell lung carcinoma (HTB-184, RRID:CVCL_1565), NCI-H1417 (CRL-5869, RRID:CVCL_1469), and NCI-H196 small cell lung carcinoma (CRL-5823, RRID:CVCL_1509). Dr. Peter Houghton (Greehey Children's Cancer Research Institute, University of Texas Health Science Center, San Antonio, TX) provided Rh-18 rhabdomyosarcoma (RRID:CVCL_1659). Pooled donor human umbilical vein endothelial cells (HUVEC, Lonza, cat. CC-2519) and human mesenchymal stem cells (hMSC, Lonza, cat. PT-2501) were purchased from Lonza (Walkersville, MD).
Cell Culture. […]

[1] = curve of first compound, second compound 0.1 µM
[2] = curve of first compound, second compound 0.316 µM
[3] = curve of first compound, second compound 1 µM
[4] = second compound 0.1 µM, first compound 0.0316 µM
[5] = second compound 0.1 µM, first compound 0.1 µM
[6] = second compound 0.1 µM, first compound 0.316 µM
[7] = second compound 0.1 µM, first compound 1 µM
[8] = second compound 0.316 µM, first compound 0.0316 µM
[9] = second compound 0.316 µM, first compound 0.1 µM
[10] = second compound 0.316 µM, first compound 0.316 µM
[11] = second compound 0.316 µM, first compound 1 µM
[12] = second compound 1 µM, first compound 0.0316 µM
[13] = second compound 1 µM, first compound 0.1 µM
[14] = second compound 1 µM, first compound 0.316 µM
[15] = second compound 1 µM, first compound 1 µM

IC50 [1]: > 1000 nM
IC50 [2]: > 1000 nM
IC50 [3]: > 1000 nM
IC50 (curve of first compound, second compound 3.16 µM): > 1000 nM
IC50 (curve of first compound, second compound 10 µM): > 1000 nM
Compound: CNC(C)C(=O)NC1CN(S(=O)(=O)c2cccc(S(=O)(=O)N3CCC4CCC(C(=O)NC(c5ccccc5)c5ccccc5)N4C(=O)C(NC(=O)C(C)NC)C3)c2)CCC2CCC(C(=O)NC(c3ccccc3)c3ccccc3)N2C1=O (centres undefined) + Cc1c(S(C)(=O)=O)c(-c2cc(F)cc(N3CCN(c4ccc(NS(=O)(=O)c5ccc(NC(CCN6CCC(C(=O)OCCCP(=O)(O)O)CC6)CSc6ccccc6)c(S(=O)(=O)C(F)(F)F)c5)cc4)CC3)c2)c(-c2ccc(Cl)cc2)n1C(C)C
viability, T/C (second compound 0.1 µM, first compound 0.00316 µM): 114%
viability, T/C (second compound 0.1 µM, first compound 0.01 µM): 100%
viability, T/C [4]: 103%
viability, T/C [5]: 90.6%
viability, T/C [6]: 96.9%
viability, T/C [7]: 88.1%
viability, T/C (second compound 0.316 µM, first compound 0.00316 µM): 116%
viability, T/C (second compound 0.316 µM, first compound 0.01 µM): 90.5%
viability, T/C [8]: 90.7%
viability, T/C [9]: 84.7%
viability, T/C [10]: 103%
viability, T/C [11]: 86%
viability, T/C (second compound 1 µM, first compound 0.00316 µM): 98.7%
viability, T/C (second compound 1 µM, first compound 0.01 µM): 97%
viability, T/C [12]: 90.4%
viability, T/C [13]: 82%
viability, T/C [14]: 89.3%
viability, T/C [15]: 90.9%
viability, T/C (second compound 3.16 µM, first compound 0.00316 µM): 93.2%
viability, T/C (second compound 3.16 µM, first compound 0.01 µM): 94.2%
viability, T/C (second compound 3.16 µM, first compound 0.0316 µM): 81%
viability, T/C (second compound 3.16 µM, first compound 0.1 µM): 81.5%
viability, T/C (second compound 3.16 µM, first compound 0.316 µM): 71.4%
viability, T/C (second compound 3.16 µM, first compound 1 µM): 83.3%
viability, T/C (second compound 10 µM, first compound 0.00316 µM): 93.2%
viability, T/C (second compound 10 µM, first compound 0.01 µM): 94.7%
viability, T/C (second compound 10 µM, first compound 0.0316 µM): 80.7%
viability, T/C (second compound 10 µM, first compound 0.1 µM): 79.5%
viability, T/C (second compound 10 µM, first compound 0.316 µM): 77.4%
viability, T/C (second compound 10 µM, first compound 1 µM): 76.3%

IC50 (curve of first compound, second compound 0.01 µM): 2650 nM
IC50 (curve of first compound, second compound 0.0316 µM): 3380 nM
IC50 [1]: 3030 nM
IC50 [2]: 3220 nM
IC50 [3]: 2320 nM
Compound: O=C(c1cc(Cc2n[nH]c(=O)c3ccccc23)ccc1F)N1CCN(C(=O)C2CC2)CC1 + CNC(C)C(=O)NC1CN(S(=O)(=O)c2cccc(S(=O)(=O)N3CCC4CCC(C(=O)NC(c5ccccc5)c5ccccc5)N4C(=O)C(NC(=O)C(C)NC)C3)c2)CCC2CCC(C(=O)NC(c3ccccc3)c3ccccc3)N2C1=O
viability, T/C (second compound 0.01 µM, first compound 0.0316 µM): 89%
viability, T/C (second compound 0.01 µM, first compound 0.1 µM): 102%
viability, T/C (second compound 0.01 µM, first compound 0.316 µM): 91.5%
viability, T/C (second compound 0.01 µM, first compound 1 µM): 83.5%
viability, T/C (second compound 0.01 µM, first compound 3.16 µM): 43.9%
viability, T/C (second compound 0.01 µM, first compound 10 µM): 11.6%
viability, T/C (second compound 0.0316 µM, first compound 0.0316 µM): 86.3%
viability, T/C (second compound 0.0316 µM, first compound 0.1 µM): 88.3%
viability, T/C (second compound 0.0316 µM, first compound 0.316 µM): 87.4%
viability, T/C (second compound 0.0316 µM, first compound 1 µM): 73.3%
viability, T/C (second compound 0.0316 µM, first compound 3.16 µM): 53.3%
viability, T/C (second compound 0.0316 µM, first compound 10 µM): 7.19%
viability, T/C [4]: 74.5%
viability, T/C [5]: 81.9%
viability, T/C [6]: 64.6%
viability, T/C [7]: 73.8%
viability, T/C (second compound 0.1 µM, first compound 3.16 µM): 49.1%
viability, T/C (second compound 0.1 µM, first compound 10 µM): 10.6%
viability, T/C [8]: 95.1%
viability, T/C [9]: 90.6%
viability, T/C [10]: 86.9%
viability, T/C [11]: 67.3%
viability, T/C (second compound 0.316 µM, first compound 3.16 µM): 54.7%
viability, T/C (second compound 0.316 µM, first compound 10 µM): 9.27%
viability, T/C [12]: 95.3%
viability, T/C [13]: 96.2%
viability, T/C [14]: 83%
viability, T/C [15]: 72%
viability, T/C (second compound 1 µM, first compound 3.16 µM): 42%
viability, T/C (second compound 1 µM, first compound 10 µM): 5.51%

IC50 (curve of compound): > 100 nM
Compound: NC1CCC(NC2CC2c2ccccc2)CC1 (centres undefined)
viability, T/C (compound 0.000316 µM): 71.8% and 62.3% and 60.2%
viability, T/C (compound 0.001 µM): 68.3% and 66.5% and 58.3%
viability, T/C (compound 0.00316 µM): 58.7% and 61.8% and 52.4%
viability, T/C (compound 0.01 µM): 53.8% and 56.1% and 47%
viability, T/C (compound 0.0316 µM): 61% and 59.4% and 54.2%
viability, T/C (compound 0.1 µM): 59.8% and 53.7% and 49.7%

IC50 (curve of compound): 38.8 nM and > 100 nM and 42.6 nM
Compound: Cn1ncnc1[C@H]1c2n[nH]c(=O)c3cc(F)cc(c23)N[C@@H]1c1ccc(F)cc1
viability, T/C (compound 0.000316 µM): 93.9% and 100% and 96.2%
viability, T/C (compound 0.001 µM): 94.1% and 95.6% and 96.7%
viability, T/C (compound 0.00316 µM): 90.7% and 96% and 83.2%
viability, T/C (compound 0.01 µM): 70.8% and 84.3% and 72.3%
viability, T/C (compound 0.0316 µM): 57.3% and 55.5% and 65.2%
viability, T/C (compound 0.1 µM): 25.6% and 69.3% and 22.8%
